Source: patent US12202866B2, “Therapeutic nanoconjugates and uses thereof” (UNIVERSITAT AUTÒNOMA DE BARCELONA (UAB), priority 2017, dated 2025)
Marks after values point to notes of the source that are not given here.

Assays:
CXCR4^+ SW1417 CRC cells = test: Internalization in CXCR4+ SW1417 CRC cells (flow cytometry, AMD3100 competition); format: cell-based, human; details: antagonist 1:10 protein:antagonist molar ratio, 1 h before nanoconjugate
Method: CXCR4+ SW1417-luc CRC cells were cultured in modified Eagle's medium (Gibco, Rockville, MD) supplemented with 10% fetal calf serum (Gibco), and incubated at 37° C. and 5% CO2 in a humidified atmosphere. […] Fluorescence emission was measured with a D detector (530/30 nm band pass filter). To assess specificity for CXCR4 receptor-mediated internalization, competition studies were performed incubating CRC SW1417 cells with the CXCR4 antagonist AMD3100 (Sigma Aldrich) in a 1:10 (protein:antagonist) molar ratio for 1 h before exposure to the nanoconjugate at […] for an additional hour.
The cells were washed in phosphate-buffered saline (Sigma-Aldrich). Live cells were recorded by TCS-SP5 confocal laser scanning microscopy (Leica Microsystems, Heidelberg, Germany) using a Plan Apo 63×/1.4 (oil HC×PL APO lambda blue) objective as described. To determine particle localization inside the cell, stacks of 10-20 sections forevery 0.5 μm of cell thickness were collected and three-dimensional models were generated using Imaris version 6.1.0 software (Bitplane, Zurich, Switzerland).

[1] = tested on: CXCR4^+ HeLa human cervical carcinoma cell line; test: Internalization in CXCR4+ HeLa cells (flow cytometry, AMD3100 competition); format: cell-based; details: pre-treatment, 1:10 molar ratio
Method: To assess specificity for CXCR4 receptor mediated internalization, competition studies incubating CXCR4^+ HeLa cells with the CXCR4 antagonist AMD3100 (octahydrochloride hydrate, Sigma-Aldrich) were performed in a 1:10 (Protein:antagonist) molar ratio for 1 h before exposure to the nanoconjugate, as previously described for the T22-GFP-H6.
Nuclei were labeled with Hoechst 33342 (Life Technologies) and plasma membranes CellMask™ Deep Red (Life Technologies).

[2] = tested on: subcutaneous CXCR4^+ SW1417 CRC tumor; test: Tumor uptake and tumor cell internalization in subcutaneous CXCR4+ SW1417 CRC model; details: fluorescence emission
Method: (§4) SC model was used to assess tumor uptake and nanoconjugate internalization and in vivo competition studies using co-administration of the CXCR4 antagonist AMD3100.
(§5) Two hours, 5 h and 24 h after the administration, the mouse was euthanized to resect the tumor and register ex vivo the intensity of the green fluorescence emitted by the nanoconjugated that biodistributed to tumor tissue using the IVIS® 200-Spectrum (Perkin Elmer, MA, USA). Following, tumor tissue samples were taken, processed and performed immunohistochemistry (IHC) to determine the presence or absence of the corresponding nanoconjugate into cytosol of tumor cells using an anti-GFP antibody (1:300; Santa-Cruz Biotechnology, CA, USA). […] Apoptosis was assessed determining nuclear condensation with Hoechst staining of tumor tissue sections and counting the number of condensed or defragmented nuclei in five high-power magnification fields in different sections for each tumor using the Olympus DP73 digital camera and the CellD Imaging 3.3 programme (Olympus, Tokyo, Japan).

[3] = Nanoparticle size by dynamic light scattering; format: physicochemical; details: Example 2; unit not given
Method: The volume and size distribution of the nanoparticles was determined by dynamic light scattering at 633 nm (Zetasizer Nano ZS, Malvern Instruments Limited, Malvern, Worcestershire, UK). Nanoconjugate size was also measured using purified samples, diluted to 0.2 mg/mL and contrasted by evaporation of 1 nm platinum layer in carbon-coated grids, before being visualized in a Hitachi H-7000 transmission electron microscope (TEM), as described33.

[4] = tested on: subcutaneous CXCR4^+ SW1417 CRC tumor; test: Induction of DNA double strand breaks and apoptosis in tumor tissue, SC SW1417 model; format: in vivo, mouse; details: for number of apoptotic figures in tumor tissue (Hoechst nuclear condensation or defragmentation): 24 h after injection; for number of DSBs foci in tumors (anti-gH2AX IHC): five hours after treatment
Method: (§1) The SC SW1417 mouse model was used to determine the capacity of the nanoconjugate to induce DNA damage and apoptosis in tumor tissue, as well as the kinetics of CXCR4 expression in the membrane of tumor cells after treatment, regarding the fraction of CXCR4 expressing tumor cells and their intensity, since CXCR4^+ are the target cells for the nanoconjugate. […] The mice had been treated with equimolecular dosages of T22-GFP-H6, free oligo-FdU or Buffer, in which also were determined the levels of CXCR4 expression in tumor tissue at the different time points.

[5] = tested on: CXCR4^+ SW1417 CRC metastases; test: Regression of established metastasis protocol, orthotopic CXCR4+ SW1417 CRC model; format: in vivo, Swiss nude mice; details: for LN foci, mean foci number per mouse / Lung foci, mean foci number per mouse: Regression protocol, 6 histology sections, mean + SE; for LN foci, mean foci number per mouse: 20 μg (or equimolecular) q3d x10 i.v.
Method: Swiss nude mice were anesthetized with ketamine and xylazine, exteriorizing their cecum by a laparotomy. 2×106 CXCR4^+ SW1417-luci CRC cells (expressing luciferase, to allow ex vivo bioluminescent identification of metastatic foci in affected organs at the end of therapy) were suspended in […] of modified Eagle's medium, and loaded into a sterile micropipette. The cell suspension was slowly injected, under a binocular lens, with an approximate 30° angle and its tip introduced 5 mm into the cecal wall. Afterward, a slight pressure was applied with a cotton stick at approximately 2 mm from the injection point in the direction of the pipette axis. The pipette was pulled out and the area around the injection cleaned with 3% iodine. After injection, the gut was returned to the abdominal cavity and closed with surgical staples.
The orthotopic and metastatic CRC model developed in Swiss nude mice was employed to perform experiments of metastasis regression. […] The experiment was finished when the first animal of the buffer-treated-group had to be euthanized. See below the studied parameters to evaluate the antimetastatic effect.
(§2) At necropsy, the number and size of visible metastases in the organs where dissemination is expected in colorectal cancer (lymph nodes, liver, lung and peritoneum) were recorded for each mouse in all compared groups. Also the number of metastatic foci that emitted bioluminiscence (derived from the SW1417-luci CRC cells) were counted ex vivo in the target organs for metastasis, using the IVIS® 200-Spectrum (Perkin-Elmer). Samples for histopathological and immunohistochemical analyses were collected and processed. Two independent observers analyzed H&E stained samples to count the number and measure the size of all observed metastatic foci in three (metastasis prevention experiment) or six (regression of metastasis experiment) sections of each organ in each mouse. The images were taken and the measurements were performed with an Olympus microscope with the CellD Olympus software (v3.3). […] The obtained results were used to study a possible correlation between CXCR4^+ CCF and antimetastatic effect at the different sites.
(§3) In order to analyze differences between control and experimental groups of affected mice in metastatic rates at the different organs, Fisher's exact test was used. The Mann-Whitney test was used to compare number and size of metastatic foci in the affected organs among groups. All quantitative values were expressed as mean±SE and the statistical tests were performed using SPSS version 11.0 (IBM, New York, USA). Differences among groups was considered significant at a p<0.05.

[6] = tested on: subcutaneous CXCR4^+ SW1417 CRC tumor; details: mouse, in vivo, iv
Method: as §4, §5

[7] = tested on: CXCR4^+ cancer cells in SC SW1417 CRC tumor; test: CXCR4+ cancer cell fraction in tumor tissue along time after single dose (anti-CXCR4 IHC); format: in vivo, mouse; details: 24 h, 48 h, 72 h after equimolecular dose
Method: as §1

[8] = tested on: CXCR4^+ SW1417 CRC metastases; test: Prevention of metastasis protocol, SC+ORT CXCR4+ SW1417 CRC model; format: in vivo, NOD/SCID mice
Method: Thus, a SC+ORT model, was produced: when SC tumors reached a volume of 700 mm3, mice were sacrificed by cervical dislocation and tumours were excised, discarding the necrotic areas. Three hundred mg of viable tumour tissue was then cut into pieces and disaggregated in a mix of 0.05% trypsin (Invitrogen) and 100 mg/ml DNase (Sigma-Aldrich). The mix was pipetted 30 times, using a 10 ml pipette, and incubated for 10 minutes at 37° C. with shaking. It was then re-pipetted 30 times, using 10 ml, 3 ml and 1 ml pipettes, and re-incubated for 5 minutes at 37° C. with shaking. This re-pipetting step was then repeated. The obtained SW1417 single-cell suspension was filtered through a cell strainer and centrifuged at 1,000 g for 10 minutes before counting the cells. Then 2×10^6 cells, […] resuspended in 50 μl of media, were microinjected in the cecum of each mouse, following the method described above.
The SC+ORT metastatic CRC model developed in NOD/SCID mice was used to evaluate the capacity of the nanoconjugate for metastasis prevention.
as §2, §3

[9] = Prevention protocol, 3 histology sections, mean + SE

## c1cc(CN2CCCNCCNCCCNCC2)ccc1CN1CCCNCCNCCCNCC1 [AMD3100, reference compound]
CXCR4^+ SW1417 CRC cells
  block of T22-GFP-H6-FdU internalization by CXCR4 antagonist: completely blocked
[1]
  block of T22-GFP-H6-FdU internalization in HeLa cells by CXCR4 antagonist pre-treatment: Complete internalization block
[2]
  block of T22-GFP-H6-FdU tumor uptake by CXCR4 antagonist given prior to the nanoconjugate: completely blocked

## T22-GFP-H6: targeting vector: fusion protein nanoparticle of peptide T22 (CXCR4 ligand), green fluorescent protein and a Histidine tail
[3]
  size determined by dynamic light scattering: 13.4+0.11
[4]
  number of apoptotic figures in tumor tissue (Hoechst nuclear condensation or defragmentation): 3.0±0.3
  number of DSBs foci in tumors (anti-gH2AX IHC): undetectable
[5]
  LN foci, mean foci number per mouse: 1.1 ± 0.2 ^i
  Lung foci, mean foci number per mouse: 1.7 ± 0.6 ^l
[6]
  internalization into CXCR4^+ tumor cell cytosol by anti-GFP immunohistochemistry: internalized

## 5′-(FdU)5-3′ [free oligo-FdU, reference compound]
[4]
  number of apoptotic figures in tumor tissue (Hoechst nuclear condensation or defragmentation): 7.1±0.6
  number of DSBs foci in tumors (anti-gH2AX IHC): 13.4±0.7
[7]
  CXCR4+ CCF in tumor tissue along time: remained similar to its basal level along time
[8]; Prevention protocol, 20 μg (or equimolecular) q3d x12 i.v., 3 histology sections, mean + SE
  LN foci, mean foci number per mouse: 3.1 ± 0.4
[8]; [9]
  Liver foci, mean foci number per mouse: 1.0 ± 0.3 ^c
  Lung foci, mean foci number per mouse: 4.5 ± 1.6 ^e
  Peritoneal foci, mean foci number per mouse: 2.8 ± 1.0 ^g
[8]; compared to buffer-treated animals
  total or mean foci number at any site (LN, liver, lung, peritoneum): did not reduce
[8]; end of prevention experiment
  Metastasis Liver [%]: [55]^a %
  Metastasis Liver, affected/total mice: 6/11
  Metastasis Lung [%]: [55]^c %
  Metastasis Lung, affected/total mice: 6/11
  Metastasis Lymph nodes [%]: [100] %
  Metastasis Lymph nodes, affected/total mice: 11/11
  Metastasis Peritoneal [%]: [45] %
  Metastasis Peritoneal, affected/total mice: 5/11
  remaining CXCR4^+ CCF in liver, lung and peritoneal metastatic tissue (anti-CXCR4 IHC): does not reduce
[8]; mean foci size
  Metastasis Size, Liver: 9.6 μm^2 × 10^−3
  Metastasis Size, Lung: 17.9 μm^2 × 10^−3
  Metastasis Size, Lymph nodes: 77.0 μm^2 × 10^−3
  Metastasis Size, Peritoneal: 304.8 μm^2 × 10^−3
[8]; mice bearing a primary tumor out of total mice per group
  Primary tumor Positive/#Mice: 11/11
[8]; percent of mice bearing a primary tumor
  Primary tumor [%]: [100] %
[8]; prevention experiment, compared to buffer-treated mice
  primary tumor growth by in vivo bioluminescence emission: no significant inhibition
[5]
  LN foci, mean foci number per mouse: 0.8 ± 0.2
  Lung foci, mean foci number per mouse: 2.0 ± 0.7 ^j,m
[5]; regression experiment, compared to buffer treated animals
  primary tumor growth by in vivo bioluminescence emission: significantly inhibited tumor growth
